Experimental data published in publication PMC9268243, “Metabolic Behaviors of Aconitum Alkaloids in Different Concentrations of Aconiti Lateralis Radix Praeparata and Effects of Aconitine in Healthy Human and Long QT Syndrome Cardiomyocytes” (Molecules, 2022).
Read-outs that look alike come from different tables or passages of the source.

Experiments:
[1] = Pharmacokinetic study of six aconitum alkaloids in rat plasma after oral Fu Zi extracts (UPLC-MS/MS); type: in vivo, Sprague Dawley rats; conditions: SD rat plasma, mean ± SD, n = 8; for Cmax / Tmax / AUC(0-t) / CL/F / Vd/F / half-life: both sexes, Sprague Dawley, in vivo; for AUC(0-t): read-out: AUC(0–48h); for CL/F: read-out: CLz/F (converted); for Vd/F: read-out: Vz/F; for half-life: read-out: t1/2z (converted)
Experimental: Fu Zi (200 g) was taken and broken by a pulverizer to the size of 0.5–1.0 cm. The broken Fu Zi was soaked in 1.6 L distilled water and boiled for 0.5 h. The filtrate was collected and the previous step was repeated for the filtered residue. The mixed filtrates were precipitated with 60% ethanol, and then centrifuged (2000× g, 10 min). The supernatant was decompressed and concentrated to a final density of 2.0 g/mL by the amount of the crude drugs. The final concentration of ethanol in Fu Zi extracts before administration was below 0.5%. The extract was subsequently kept at −20 °C for oral administration to rats.
All samples were analyzed on UPLC® I-Class and Xevo® TQS mass spectrometry combined system. Separations by a Waters ACQUITY UPLC® HSS T3(2.1 mm × 100 mm, 1.8 μm) column were conducted with a mobile phase of water (A) and acetonitrile (B), both containing 0.1% formic acid, at the flow rate of 0.3 mL·min^−1.The run time was 5.0 min and the gradient elution program was adopted as follows: 0–0.3 min, 10% B; 0.3–1 min, 10–50% B; 1–2.5 min, 50–90% B; 2.5–3 min, 90% B; 3–5 min, 10% B. The temperature of the column and samples were set at 45 °C and 10 °C, respectively. The volume of injection was 2 μL.
The detection was quantified by a triple quadrupole mass spectrometer that was set as multiple reactive monitoring (MRM) in the electrospray positive ionization mode (ESI+). The correlative parameters were as follows: capillary voltage: 3 kV; desolvation gas flow: 800 L·h^−1; cone gas flow: 150 L·h^−1; source temperature: 150 °C; desolvation temperature: 500 °C.
The method of […] was utilized. An amount of 100 μL of plasma samples from rats after oral administration of Fu Zi extracts was precipitated with 300 μL of 50% acetonitrile plus 50% methanol, vortexed for 1.0 min and centrifuged at a speed of 12,000× g at 4 °C for 10 min. The supernatant was transferred to another 1.5 mL centrifuge tube, dried with a stream of nitrogen at 40 °C, redissolved in 50 μL methanol and centrifuged at 12,000× g for 10 min. Then, the supernatant was pipetted out into the autosampler vials and analyzed by UPLC-MS/MS system.
24 Sprague Dawley rats (half male and female, weight 180–220 g) were purchased from Beijing Weitong Lihua Biotechnology Co.Ltd. (Beijing, China). The license number of experimental animal production was SCXK (Jing) 2016–0006. The animals were maintained under a standard laboratory condition (humidity: 40–70%, room temperature: 20–26 °C, […], 12 h dark-light cycle) and fed separately. All animal experiments were conducted according to the Guide for the Care and Use of Laboratory Animals (National Research Council of the USA, 1996) and approved by the Institutional Animal Care and Use Committee (IACUC-DWZX-2020-776). After 5 days of acclimation, the rats were fasted for 12 h but provided with water freely before the experiments. The rats were randomly divided into 3 groups: high (2.0 g/kg), middle (1.0 g/kg), and low (0.5 g/kg) dose groups. The Fu Zi extracts was administered to each rat intragastrically. An equivalent of 0.20 mL blood samples were collected from the fossa orbitalis vein into 1.5 mL heparinized centrifuge tubes at the designated time points after dosing: 0.08, 0.25, 0.5, 1, 2, 4, 8, 12, 24, and 48 h. The plasma samples were pipetted out into another 1.5 mL centrifuge tubes after being centrifuged at 5000× g for 10 min and then stored at −20 °C until further analysis.
The data were acquired by […] from Waters (UNIFI). Microsoft Office Excel and the SPSS software (Version 13.0) was used for data analysis. The data below the LLOQ were regarded as zero in summary statistics. The pharmacokinetic parameters were calculated by DAS pharmacokinetic program (Version 2.0) and all analyzed by non-compartmental method. […] All data were presented as mean ± SD. […]

CYP3A4 = conditions: in vivo; cited from earlier work

SMILES | Cmax ([1]; oral Fu Zi extracts 0.5 g/kg) [ng/mL] | Tmax ([1]; oral Fu Zi extracts 0.5 g/kg) [h] | AUC(0-t) ([1]; oral Fu Zi extracts 0.5 g/kg) [ng·h/mL] | CL/F ([1]; oral Fu Zi extracts 0.5 g/kg) [mL/min/kg] | Vd/F ([1]; oral Fu Zi extracts 0.5 g/kg) [L/kg] | half-life ([1]; oral Fu Zi extracts 0.5 g/kg) [h] | Cmax ([1]; oral Fu Zi extracts 1.0 g/kg) [ng/mL] | Tmax ([1]; oral Fu Zi extracts 1.0 g/kg) [h] | AUC(0-t) ([1]; oral Fu Zi extracts 1.0 g/kg) [ng·h/mL] | CL/F ([1]; oral Fu Zi extracts 1.0 g/kg) [mL/min/kg] | Vd/F ([1]; oral Fu Zi extracts 1.0 g/kg) [L/kg] | half-life ([1]; oral Fu Zi extracts 1.0 g/kg) [h] | Cmax ([1]; oral Fu Zi extracts 2.0 g/kg) [ng/mL] | Tmax ([1]; oral Fu Zi extracts 2.0 g/kg) [h] | AUC(0-t) ([1]; oral Fu Zi extracts 2.0 g/kg) [ng·h/mL] | CL/F ([1]; oral Fu Zi extracts 2.0 g/kg) [mL/min/kg] | Vd/F ([1]; oral Fu Zi extracts 2.0 g/kg) [L/kg] | half-life ([1]; oral Fu Zi extracts 2.0 g/kg) [h] | main CYP 450 subtype for alkaloid metabolism (CYP3A4) | t1/2z ([1]; oral Fu Zi extracts 1.0 g/kg) [h]
CCN1CC2(COC)C(O)CC(OC)C34C5CC6(O)C(OC)C(O)C(O)(C5C6OC(=O)c5ccccc5)C(C(OC)C23)C14 (stereo not shown) [BAC, benzoylaconine] | 1.52 ± 0.71 | 3.72 ± 3.6 | 16.2 ± 5.43 | 460 | 194 ± 117 | 4.48 ± 0.64 | 3.24 ± 2.01 | 5.71 ± 5.07 | 38.5 ± 15.4 | 271 | 152 ± 97.1 | 5.91 ± 3.79 | 5.91 ± 2.25 | 0.34 ± 0.2 | 50.5 ± 19.4 | 583 | 801 ± 396 | 13.7 ± 4.26 | – | –
COC[C@@]12CC[C@H](OC)[C@]34C(C([C@H](OC)[C@H]13)[C@]1(OC(C)=O)[C@H]3[C@@H](OC(=O)c5ccccc5)[C@](O)(C[C@H]34)[C@@H](OC)[C@@H]1O)N(C)C2 [HA, hypaconitine] | 6.37 ± 1.96 | 2.14 ± 0.9 | 62.9 ± 26.9 | 67 | 12.8 ± 6.88 | 1.83 ± 0.64 | 9.22 ± 1.78 | 3.88 ± 2.03 | 115 ± 25 | 59.5 | 45.3 ± 26.3 | – | 12.5 ± 4.42 | 1.6 ± 1.47 | 186 ± 64.7 | 79.7 | 80.4 ± 35.5 | 11.9 ± 4.59 | CYP3A4 | 8.72 ± 3.40
